Results from ChEMBL document CHEMBL4177615 (Bioorg Med Chem, 2017).

How the values were obtained:
Plasmodium falciparum [1] = assay: Antimalarial activity against Plasmodium falciparum 3D7 infected in ARh+ human erythrocytes at 10 uM after 42 to 48 hrs by Picogreen staining-based 96 well microplate assay; type: functional; conditions: read-out: GI
Plasmodium falciparum [2] = assay: Antimalarial activity against Plasmodium falciparum 3D7 infected in ARh+ human erythrocytes at 1 uM after 42 to 48 hrs by Picogreen staining-based 96 well microplate assay; type: functional; conditions: read-out: GI
Plasmodium falciparum [3] = assay: Antimalarial activity against Plasmodium falciparum 3D7 infected in ARh+ human erythrocytes at 0.1 uM after 42 to 48 hrs by Picogreen staining-based 96 well microplate assay; type: functional; conditions: read-out: GI
Plasmodium falciparum [4] = assay: Antimalarial activity against Plasmodium falciparum 3D7 infected in ARh+ human erythrocytes at 0.01 uM after 42 to 48 hrs by Picogreen staining-based 96 well microplate assay; type: functional; conditions: read-out: GI
Plasmodium falciparum [5] = assay: Antimalarial activity against Plasmodium falciparum 3D7 infected in ARh+ human erythrocytes after 42 to 48 hrs by Picogreen staining-based 96 well microplate assay; type: functional, organism-based

Structure (SMILES) | IC50 (Plasmodium falciparum [5]) | inhibition of growth at 10 µM (Plasmodium falciparum [1]) | inhibition of growth at 1 µM (Plasmodium falciparum [2]) | inhibition of growth at 0.1 µM (Plasmodium falciparum [3]) | inhibition of growth at 0.01 µM (Plasmodium falciparum [4])
Fc1ccc(Cn2c(NC3CCN(CCCc4ccccc4)CC3)nc3ccccc32)cc1 | 0.196 µM | 100% | 78% | 37% | 2%
O=C(NCc1ccccc1)N1CCC(Nc2nc3ccccc3n2Cc2ccc(F)cc2)CC1 | > 10 µM | 25% | 4% | 0% | 0%
O=C(N1CCOCC1)N1CCC(Nc2nc3ccccc3n2Cc2ccc(F)cc2)CC1 | > 10 µM | 26% | 0% | 0% | 0%
O=C(c1ccc(F)cc1)N1CCC(Nc2nc3ccccc3n2Cc2ccc(F)cc2)CC1 | 10 µM | 51% | 6% | 0% | 0%
CC(C)CN1CCC(Nc2nc3ccccc3n2Cc2ccc(F)cc2)CC1 | 0.829 µM | 90% | 60% | 0% | 0%
CC(C)S(=O)(=O)N1CCC(Nc2nc3ccccc3n2Cc2ccc(F)cc2)CC1 | > 10 µM | 11% | 1% | 3% | 2%
COc1ccc(CCN2CCC(Nc3nc4ccccc4n3Cc3ccc(Br)cc3)CC2)cc1 | 0.111 µM | 97% | 100% | 47% | 0%
O=C(Nc1ccc2c(c1)CCC2)N1CCC(Nc2nc3ccccc3n2Cc2ccc(F)cc2)CC1 | 6.28 µM | 66% | 5% | 2% | 1%
Cc1ccc(S(=O)(=O)N2CCC(Nc3nc4ccccc4n3Cc3ccc(F)cc3)CC2)cc1 | 8.29 µM | 55% | 10% | 7% | 8%
O=C(c1ccccc1)N1CCC(Nc2nc3ccccc3n2Cc2ccc(F)cc2)CC1 | > 10 µM | 18% | 8% | 0% | 5%
Fc1ccc(Cn2c(NC3CCN(CC4CC4)CC3)nc3ccccc32)cc1 | 2.25 µM | 98% | 21% | 0% | 0%
O=C(c1ccc(Cl)cc1)N1CCC(Nc2nc3ccccc3n2Cc2ccc(F)cc2)CC1 | > 10 µM | 36% | 5% | 3% | 4%
CCCCCCn1c(NC2CCN(CCc3ccc(OC)cc3)CC2)nc2ccccc21 | 0.029 to 0.03 µM | 100% | 100% | 95% | 6%
CC(C)(C)NC(=O)N1CCC(Nc2nc3ccccc3n2Cc2ccc(F)cc2)CC1 | > 10 µM | 43% | 6% | 2% | 0%
Fc1ccc(Cn2c(NC3CCN(CC4CCCCC4)CC3)nc3ccccc32)cc1 | 0.857 µM | 100% | 48% | 14% | 0%
CN1CCC(Nc2nc3ccccc3n2Cc2ccc(F)cc2)CC1 | 3.09 µM | 100% | 2% | 0% | 0%
COc1ccc(CCN2CCC(Nc3nc4ccccc4n3Cc3ccccc3)CC2)cc1 | 0.344 µM | 100% | 82% | 14% | 0%

Further lines, with some results ahead:

IC50 (Plasmodium falciparum [5]) | Structure (SMILES) | inhibition of growth at 10 µM (Plasmodium falciparum [1]) | inhibition of growth at 1 µM (Plasmodium falciparum [2]) | inhibition of growth at 0.1 µM (Plasmodium falciparum [3]) | inhibition of growth at 0.01 µM (Plasmodium falciparum [4])
1.9 µM | Fc1ccc(Cn2c(NC3CCN(Cc4ccccc4)CC3)nc3ccccc32)cc1 | 94% | 29% | 2% | 2%
6.74 µM | COCn1c(NC2CCN(CCc3ccc(OC)cc3)CC2)nc2ccccc21 | 64% | 5% | 0% | 0%
6.85 µM | COc1ccc(OC)c(S(=O)(=O)N2CCC(Nc3nc4ccccc4n3Cc3ccc(F)cc3)CC2)c1 | 61% | 8% | 4% | 5%
3.96 µM | O=S(=O)(c1ccc(Cl)cc1)N1CCC(Nc2nc3ccccc3n2Cc2ccc(F)cc2)CC1 | 83% | 6% | 1% | 4%
> 10 µM | O=C(NCCc1ccccc1)N1CCC(Nc2nc3ccccc3n2Cc2ccc(F)cc2)CC1 | 49% | 15% | 1% | 8%
6.18 µM | O=C(c1ccc(C(F)(F)F)cc1)N1CCC(Nc2nc3ccccc3n2Cc2ccc(F)cc2)CC1 | 66% | 6% | 0% | 3%
0.24 µM | CCC(CC)Cn1c(NC2CCN(CCc3ccc(OC)cc3)CC2)nc2ccccc21 | 95% | 100% | 16% | 0%
0.416 µM | CCCn1c(NC2CCN(CCc3ccc(OC)cc3)CC2)nc2ccccc21 | 100% | 82% | 3% | 0%
> 10 µM | O=C(Nc1ccccc1)N1CCC(Nc2nc3ccccc3n2Cc2ccc(F)cc2)CC1 | 35% | 7% | 3% | 0%
> 10 µM | O=C(Nc1ccc(F)cc1F)N1CCC(Nc2nc3ccccc3n2Cc2ccc(F)cc2)CC1 | 39% | 4% | 0% | 2%
8.14 µM | COc1ccc(NC(=O)N2CCC(Nc3nc4ccccc4n3Cc3ccc(F)cc3)CC2)c(OC)c1 | 57% | 5% | 1% | 0%
0.718 µM | Fc1ccc(Cn2c(NC3CCN(C/C=C/c4ccccc4)CC3)nc3ccccc32)cc1 | 100% | 55% | 12% | 1%
0.125 µM | Fc1ccc(Cn2c(NC3CCN(CCc4ccccc4)CC3)nc3ccccc32)cc1 | 100% | 90% | 43% | 9%
